From US20240226096A1, “TREATMENT OF MYELOPROLIFERATIVE DISEASES AND DISORDERS WITH INHIBITORS OF BET FAMILY BDII BROMODOMAIN” (POSEIDON INNOVATION 1, INC., priority 2022, published 2024)

Experiments:
[1] = test system: BaF3-EPOR-JAK2V617F cell line; assay: BaF3-JAK2(V617F)-EPOR cell line proliferation assay (CellTiter-Glo), combination study; type: cell-based; details: 96 hours, FIG. 1
Description: (§1) Test compounds are dissolved at 10 mM DMSO stock solution. Transfer 45 uL of stock solution to a 384 PP-plate. Perform 3 fold, 10-point dilution via transferring 15 uL compound into 30 μL DMSO by using TECAN (EVO200) liquid handler. The plates are spin at room temperature at 1,000 RPM for 1 minute and shake at a plate shaker for 2 minutes. Transfer Compound A and Compound B of diluted compound from compound source plate into the cell plate by using liquid handler Echo665. Harvest the cells from flask into cell culture medium and then count the cell number. Dilute the cells with culture medium to the desired density and 40 μL of cell suspension is added into 384-well plate contain compound. Low control is adding cell culture medium. The final seeding density for SET-2 and BaF3-EPOR-JAK2V617F cell lines are 2,000 cells/well and 1000 cells/well respectively. Cover the plates with lid and mix the plate on orbital shaker (700-900 rpm) for 1 min, transfer the plates into 37° C. 5% CO2 incubator for 4 days culture. After compound treatment for 96 hours, remove the plate from incubators and equilibrated at room temperature for 15 minutes. Add CellTiter-Glo reagent into each well.
(§2) Place the plate on an orbital shaker, and shake at 500-700 rpm to facilitate cell lysis and ATP extraction from the cells. Measure luminescence after 5-10 minutes using BMG.

SET-2 cell line = SET-2 cell line proliferation assay (CellTiter-Glo), combination study; type: cell-based; details: 96 hours, FIG. 2
Description: as §1, §2

[2] = in combination with Ruxolitinib

Cn1ccn(-c2ccc(-c3cc(F)cc(-c4cccc(N5CCN(C(C)(C)C)CC5)c4)c3O)cc2Cl)c1=O [Compound I-1, 1-(3″-(4-(tert-butyl)piperazin-1-yl)-3-chloro-5′-fluoro-2′-hydroxy-[1,1′:3′,1″-terphenyl]-4-yl)-3-methyl-1,3-dihydro-2H-imidazol-2-one]
suppresses proliferation: proliferation of the BaF3-EPOR-JAK2V617F cell line ([1]; compound alone) | proliferation of the BaF3-EPOR-JAK2V617F cell line [1, 2] | proliferation of the SET-2 cell line (SET-2 cell line; compound alone) | proliferation of the SET-2 cell line (SET-2 cell line; [2])
